In patent US6893829B2, “Human leukocyte 12-lipoxygenase and its role in the pathogenesis of disease states” (City of Hope, priority 1992, dated 2005):

Tested on: 12-LO activity in HSMC
Assay: 12-HETE release and cell-associated 12-HETE in HSMC (HPLC/RIA)
Format: cell-based, human
Experimental: FIG. 3A illustrates the effect of AII on 12-HETE release by HSMC. HSMC were grown to confluency. Serum was removed and cells were incubated in media 199 containing 0.4% fetal bovine serum (FBS) and 0.2% BSA for 18 hours. Cells were then washed with DME media and incubated for 20 minutes in DME media containing 0.2% BSA. AII was added to the cells for five and ten minutes at the concentrations of 10^−9 and 10^−8 mol/L. Media were collected for HETE assay. • *p<0.05 vs control n=4
FIG. 3B illustrates the effect of AII on cell-associated 12-HETE levels in HSMC. After collecting supernatants, cells were washed with ice-cold PBS and harvested by scraping for the assay of cell-associated HETEs. • *p<0.02 vs control n=4
HSMC and HAEC monolayers were washed twice with ice-cold PBS and then processed for RNA extraction or western analysis as described below. For hydroxyeicosatetraenoic acid (HETE) assay, approximately 24 hours prior to an experiment, the medium was replaced with medium 199 containing 0.4% FBS and 0.2% BSA.
These assays were performed using previously published methods (10,11). Briefly, 12- and 15-HETE are extracted from supernatants and cells on C18 mini columns (Analytichem International, CA) and measured using our validated reverse phase gradient HPLC and (RIA) methods.
Another major aspect of this invention is the discovery that AII increases the activity and expression of 12-LO mRNA and protein in HSMC.

Angiotensin II (DRVYIHPF; Angiotensin-2; UniProt P01019 25-32, looked up) [AII, peptide hormone, added to cells as stimulus]
release of 12-HETE (AII 10^−8M, 5 minute incubation, serum free media, control 599±105): 1467±277 pg per mg of protein
release of 12-HETE (AII 10^−8 mol/L, ten minute incubation): significantly simulated the release of 12-HETE
release of 12-HETE (AII 10^−9 mol/L, 5 minute incubation, serum free media, control 599±105): 1296±262 pg per mg of protein
cell-associated 12-HETE levels (HSMC, FIG. 3B): significantly also increased
